Assay results taken from patent US20050107423A1, “Quinolone antibacterial agents” (priority 2003, published 2005).
Values after ≈ are worked out from the molar mass of the structure shown.

Columns and labels:
Assay in all cases: Antibacterial assay, microtitration MIC (Test A)
Assay type in all cases: cell-based
[1] = tested on: S. pneumo SV-1; details: Gram Positive Bacteria, strain SV-1; for MIC: read-out: Minimum Inhibitory Concentrations S. pneumo SV-1
Procedure: (§1) The compounds of the present invention were tested against an assortment of Gram-negative and Gram-positive organisms using standard microtitration techniques (Cohen et. al., Antimicrob., 1985;28:766; Heifetz, et. al., Antimicrob., 1974;6:124). The results of the evaluation are shown in Tables 1A and B, wherein “-” means no data.

[2] = tested on: E. faecalis MGH-2; details: strain MGH-2; for MIC: Enterococcus faecalis, MGH2, Gram Positive Bacteria, read-out: Minimum Inhibitory Concentrations E. faecalis MGH-2; for Minimum Inhibitory Concentrations E. faecalis MGH-2: Gram Positive Bacteria
Procedure: as §1

[3] = tested on: S pyogenes C203; details: Gram Positive Bacteria, strain C203; for MIC: read-out: Minimum Inhibitory Concentrations S pyogenes C203
Procedure: as §1

SMILES	MIC [1]	MIC [2]	MIC [3]	Minimum Inhibitory Concentrations S. pneumo SV-1 [1]	Minimum Inhibitory Concentrations E. faecalis MGH-2 [2]	Minimum Inhibitory Concentrations S pyogenes C203 [3]
Nc1nc(-n2cc(C(=O)O)c(=O)c3cc(F)c(N4CCC(C(O)C(F)F)C4)c(Cl)c32)c(F)cc1F (stereo not drawn) [drawing 351]	0.06 µg/mL (≈ 0.116 µM)	0.25 µg/mL (≈ 0.482 µM)	0.125 µg/mL (≈ 0.241 µM)			
COc1c(N2CCC(C(O)C(F)(F)F)C2)c(F)cc2c(=O)c(C(=O)O)cn(C3CC3)c12 (stereo not drawn) [drawing 362]	0.06 µg/mL (≈ 0.135 µM)	0.06 µg/mL (≈ 0.135 µM)	0.125 µg/mL (≈ 0.281 µM)			
O=C(O)c1cn(C2CC2)c2c(Cl)c(N3CCC(C(O)C4(CO)CC4)C3)c(F)cc2c1=O (stereo not drawn) [drawing 354]	0.125 µg/mL (≈ 0.277 µM)	0.125 µg/mL (≈ 0.277 µM)	0.125 µg/mL (≈ 0.277 µM)			
CC(O)(CO)C1CCN(c2c(F)cc3c(=O)c(C(=O)O)cn(C4CC4)c3c2Cl)C1 (stereo not drawn) [drawing 372]	0.25 µg/mL (≈ 0.588 µM)	0.25 µg/mL (≈ 0.588 µM)	0.25 µg/mL (≈ 0.588 µM)			
Cc1c(N2CCC(C(O)(CO)C(F)(F)F)C2)c(F)cc2c(=O)c(C(=O)O)cn(C3CC3)c12 (stereo not drawn) [drawing 371]	0.25 µg/mL (≈ 0.545 µM)	0.25 µg/mL (≈ 0.545 µM)	0.25 µg/mL (≈ 0.545 µM)			
Cc1c(N2CCC(C(C)O)C2)c(F)cc2c(=O)c(C(=O)O)cn(C3CC3)c12 (stereo not drawn) [drawing 344]	0.03 µg/mL (≈ 0.0801 µM)	0.06 µg/mL (≈ 0.16 µM)	0.06 µg/mL (≈ 0.16 µM)			
COc1c(N2CCC(C)(C(O)CC(F)(F)F)C2)c(F)cc2c(=O)c(C(=O)O)cn(C3CC3)c12 (stereo not drawn) [drawing 376]	0.125 µg/mL (≈ 0.265 µM)	0.125 µg/mL (≈ 0.265 µM)	0.25 µg/mL (≈ 0.529 µM)			
Nc1nc(-n2cc(C(=O)O)c(=O)c3cc(F)c(N4C[C@@H]5CC[C@@H](O)[C@@H]5C4)c(Cl)c32)c(F)cc1F [drawing 455]	0.125 µg/mL (≈ 0.253 µM)	0.25 µg/mL (≈ 0.505 µM)	0.25 µg/mL (≈ 0.505 µM)			
O=C(O)c1cn(C2CC2)c2nc(N3CCC(C(O)C(F)(F)F)C3)c(F)cc2c1=O (stereo not drawn) [drawing 367]	0.5 µg/mL (≈ 1.2 µM)	0.25 µg/mL (≈ 0.602 µM)	1 µg/mL (≈ 2.41 µM)			
COc1c(N2CCC(C(C)O)C2)c(F)cc2c(=O)c(C(=O)O)cn(C3CC3)c12 (stereo not drawn) [drawing 345]	0.06 µg/mL (≈ 0.154 µM)	0.125 µg/mL (≈ 0.32 µM)	0.125 µg/mL (≈ 0.32 µM)			
O=C(O)c1cn(C2CC2)c2nc(N3CCC(C(O)C(F)F)C3)c(F)cc2c1=O (stereo not drawn) [drawing 352]	0.25 µg/mL (≈ 0.629 µM)	0.125 µg/mL (≈ 0.315 µM)	0.25 µg/mL (≈ 0.629 µM)			
Cc1c(N2CCC(C(O)CO)C2)c(F)cc2c(=O)c(C(=O)O)cn(C3CC3)c12 (stereo not drawn) [drawing 356]	1 µg/mL (≈ 2.56 µM)	2 µg/mL (≈ 5.12 µM)	1 µg/mL (≈ 2.56 µM)			
O=C(O)c1cn(C2CC2)c2c(Cl)c(N3CCC(C(O)CO)C3)c(F)cc2c1=O (stereo not drawn) [drawing 357]	0.06 µg/mL (≈ 0.146 µM)	0.06 µg/mL (≈ 0.146 µM)	0.03 µg/mL (≈ 0.073 µM)			
Cc1c(N2CCC(C(C)O)C2)c(F)cc2c(=O)c(C(=O)O)cn(C3CC3)c12 (stereo not drawn) [drawing 346]				0.06 µg/mL	0.06 µg/mL	0.06 µg/mL
COc1c(N2CC(CO)C3(CC3)C2)c(F)cc2c(=O)c(C(=O)O)cn(C3CC3)c12 (stereo not drawn) [drawing 429]	0.03 µg/mL (≈ 0.0745 µM)	0.06 µg/mL (≈ 0.149 µM)	0.03 µg/mL (≈ 0.0745 µM)			
COc1c(N2C[C@@H]3CC[C@@H](O)[C@@H]3C2)c(F)cc2c(=O)c(C(=O)O)cn(C3CC3)c12 [drawing 454]	0.125 µg/mL (≈ 0.311 µM)	0.125 µg/mL (≈ 0.311 µM)	0.125 µg/mL (≈ 0.311 µM)			
Nc1nc(-n2cc(C(=O)O)c(=O)c3cc(F)c(N4CCC(C(O)C(F)(F)F)C4)c(Cl)c32)c(F)cc1F (stereo not drawn) [drawing 366]	0.5 µg/mL (≈ 0.931 µM)	0.5 µg/mL (≈ 0.931 µM)	1 µg/mL (≈ 1.86 µM)			
CC(=O)O[C@@H]1CC[C@H]2CN(c3c(F)cc4c(=O)c(C(=O)O)cn(-c5nc(N)c(F)cc5F)c4c3Cl)C[C@H]21 [drawing 456]	0.125 µg/mL (≈ 0.233 µM)	0.5 µg/mL (≈ 0.931 µM)	0.5 µg/mL (≈ 0.931 µM)			
Cc1c(N2CCC(C(O)C(F)(F)F)C2)c(F)cc2c(=O)c(C(=O)O)cn(C3CC3)c12 (stereo not drawn) [drawing 364]				0.125 µg/mL	0.06 µg/mL	0.5 µg/mL
COc1c(N2CCC(C(O)c3ccc(S(C)(=O)=O)o3)C2)c(F)cc2c(=O)c(C(=O)O)cn(C3CC3)c12 (stereo not drawn) [drawing 348]	0.5 µg/mL (≈ 0.961 µM)	0.5 µg/mL (≈ 0.961 µM)	0.5 µg/mL (≈ 0.961 µM)			
COc1c(N2CCC(C(O)C3(CO)CC3)C2)c(F)cc2c(=O)c(C(=O)O)cn(C3CC3)c12 (stereo not drawn) [drawing 353]	0.125 µg/mL (≈ 0.28 µM)	0.25 µg/mL (≈ 0.56 µM)	0.25 µg/mL (≈ 0.56 µM)			
Nc1nc(-n2cc(C(=O)O)c(=O)c3cc(F)c(N4CCC(C(O)CO)C4)c(Cl)c32)c(F)cc1F (stereo not drawn) [drawing 359]	0.5 µg/mL (≈ 1 µM)	0.5 µg/mL (≈ 1 µM)	0.5 µg/mL (≈ 1 µM)			
O=C(O)c1cn(C2CC2)c2c(Cl)c(N3CC(CO)C4(CC4)C3)c(F)cc2c1=O (stereo not drawn) [drawing 430]	0.03 µg/mL (≈ 0.0737 µM)	0.06 µg/mL (≈ 0.147 µM)	0.06 µg/mL (≈ 0.147 µM)			
